Data on eight compounds can be found in patent US10023543B2 (CELGENE QUANTICEL RESEARCH, INC., priority 2014, dated 2018).

One experiment deals with THP-1 (AML) cells. Briefly: LSD1 CD11b cellular assay (flow cytometry). The class given is cell-based. The note with it: Homo sapiens, THP-1, 96 h; CD11b expressing cells, 4 days; read-out: THP-1 IC50.
The subject of a further experiment is Kasumi-1. Briefly: Kasumi-1 AML cell line proliferation assay (Cell-MTS assay). The class given is cell-based. Particulars: Homo sapiens, 168 hours. An excerpt: Colorimetric cellular assay to assess the ability of LSD-1 small molecule inhibitors to effect the proliferation of the established AML cancer cell line Kasumi-1.
This Cell-MTS assay is a 7-day plate based colorimetric assay which quantifies the amount of newly generated NADH in the presence and absence of test compound. These NADH levels are used as a proxy for the quantification of cancer cell proliferation.
The established cancer cell line Kasumi-1 with a verified p53 mutation were purchased from American Type Culture Collection (ATCC) and routinely passaged according to ATCC published protocols. For routine assay these cells were seeded at a density of 20,000 cells per 96-well. […] At the end of this compound incubation period, 80 μl of media is removed and 20 μL of CellTiter 96® AQueous Non-Radioactive Cell Proliferation Assay solution (Promega) is added. The cells are incubated until the OD490 is >0.6. IC50 values are calculated using the IDBS XLfit software package and include background subtracted OD490 values and normalization to DMSO controls.
On the technique in general: Tetrazolium assays rely on reduction of a dye to a coloured formazan, in cell work by metabolically active cells.

The target of another experiment is full-length human LSD1 (Homo sapiens (Human), UniProt O60341). Briefly: In vitro enzyme inhibition assay LSD-1 (TR-FRET). The class given is biochemical. The note with it: H3K4me1-biotin peptide. On the technique in general: TR-FRET usually uses a lanthanide donor and a delayed reading to cut background.

SMILES strings stand for the structures.

Description for full-length human LSD1: This assay determines the ability of a test compound to inhibit LSD1 demethylase activity.
The enzymatic assay of LSD1 activity is based on Time Resolved-Fluorescence Resonance Energy Transfer (TR-FRET) detection.
Enzymatic reaction is terminated within 15 minutes if 0.5 LSD1 enzyme is used in the plate.
The ability of the compounds disclosed herein to inhibit LSD1 activity was quantified and the respective IC50 value was determined.

For the compound `Cn1c(N2CCC(N)CC2)nc(-c2ccc(C#N)c(F)c2)c(-c2cnn(CC(F)(F)F)c2)c1=O` [Example 34, 4-{2-(4-amino-piperidin-1-yl)-1-methyl-6-oxo-5-[1-(2,2,2-trifluoro-ethyl)-1H-pyrazol-4-yl]-1,6-dihydro-pyrimidin-4-yl}-2-fluoro-benzonitrile], the IC50 with THP-1 (AML) cells and in the experiment with Kasumi-1 was less than 0.1 µM in each case.
On to `Cn1c(N2CCC(N)CC2)nc(-c2ccc(C#N)c(F)c2)c(-c2ccc3c(cnn3C)c2)c1=O` [Example 35, 4-[2-(4-amino-piperidin-1-yl)-1-methyl-5-(1-methyl-1H-indazol-5-yl)-6-oxo-1,6-dihydro-pyrimidin-4-yl]-2-fluoro-benzonitrile], for which the IC50 in the experiment on THP-1 (AML) cells and in the experiment with Kasumi-1 was less than 0.1 µM in each case.
For `Cn1c(N2CCC(N)CC2)nc(-c2ccc(C#N)cc2)c(-c2cnn(CC(F)(F)F)c2)c1=O` [Example 36, 4-{2-(4-amino-piperidin-1-yl)-1-methyl-6-oxo-5-[1-(2,2,2-trifluoro-ethyl)-1H-pyrazol-4-yl]-1,6-dihydro-pyrimidin-4-yl}-benzonitrile], the half-inhibitory concentration (IC50) in the experiment on THP-1 (AML) cells and in the experiment on Kasumi-1 was less than 0.1 µM in each case.
With `CNC1CCN(c2nc(-c3ccc(C#N)c(F)c3)c(-c3ccc4nn(C)cc4c3)c(=O)n2C)CC1` [Example 65, 2-fluoro-4-[1-methyl-2-(4-methylamino-piperidin-1-yl)-5-(2-methyl-2H-indazol-5-yl)-6-oxo-1,6-dihydro-pyrimidin-4-yl]-benzonitrile], the IC50 in the experiment with THP-1 (AML) cells and with Kasumi-1 was less than 0.1 µM throughout.
As to `Cn1cc2cc(-c3c(-c4ccc(C#N)c(F)c4)nc(N4CCCNCC4)n(C)c3=O)ccc2n1` [Example 66, 4-[2-[1,4]diazepan-1-yl-1-methyl-5-(2-methyl-2H-indazol-5-yl)-6-oxo-1,6-dihydro-pyrimidin-4-yl]-2-fluoro-benzonitrile], the IC50 in the experiment on THP-1 (AML) cells and in the experiment on Kasumi-1 was less than 0.1 µM throughout.
As to `CN(C)C1CCN(c2nc(-c3ccc(C#N)c(F)c3)c(-c3ccc4nn(C)cc4c3)c(=O)n2C)CC1` [Example 71, 4-[2-(4-dimethylamino-piperidin-1-yl)-1-methyl-5-(2-methyl-2H-indazol-5-yl)-6-oxo-1,6-dihydro-pyrimidin-4-yl]-2-fluoro-benzonitrile], the IC50 in the experiment on THP-1 (AML) cells and in the experiment on Kasumi-1 was less than 0.1 µM in each case.
Turning to `Cn1c(N2CCC(N)CC2)nc(-c2ccc(C#N)c(F)c2)c(-c2ccc3[nH]ncc3c2)c1=O` [Example 88, 4-[2-(4-aminopiperidin-1-yl)-5-(1H-indazol-5-yl)-1-methyl-6-oxopyrimidin-4-yl]-2-fluorobenzonitrile], the IC50 with THP-1 (AML) cells and with Kasumi-1 was less than 0.1 µM in each case.
As to `Cn1c(N2CCC(N)CC2)nc(-c2ccc(C#N)c(F)c2)c(-c2ccc(OCCO)cc2)c1=O` [Example 96, 4-[2-(4-aminopiperidin-1-yl)-5-[4-(2-hydroxyethoxy)phenyl]-1-methyl-6-oxopyrimidin-4-yl]-2-fluorobenzonitrile], the IC50 on full-length human LSD1 and in the experiment with THP-1 (AML) cells was less than 0.1 µM throughout.
